Molecules are shown by their SMILES.

One may read the melting point as the temperature, or range, at which the solid turns liquid.

`COc1ccc([C@@H]2c3cc(OC)ccc3[C@@H](c3ccc4c(c3)OC(OC)O4)[C@H]2C(=O)O)cc1` (mixture of isomers) [Example 84, (1RS, 2SR, 3RS)-5-Methoxy-3-(4-methoxyphenyl)-1-(2-methoxy4,5-methylenedioxyphenyl)indane-2-carboxylic acid] showed a melting point of 149 to 150 °C.
Turning to `CCCCOc1ccc2c(c1)[C@H](C1(OC)C=CC=CC1)[C@@H](C(=O)O)[C@@H]2c1ccc2c(c1)OCO2` (mixture of isomers) [Example 107, (1RS, 2SR, 3RS)-5-(But-1-yloxy)-3-(1-methoxyphenyl)-1-(3,4-methylenedioxyphenyl)indane-2-carboxylic acid], the melting point lay in the range of 157 to 158 °C.
As for `CCCOc1ccc2c(c1)[C@H](c1ccc(OC)cc1OCC#N)[C@@H](C(=O)O)[C@@H]2c1ccc2c(c1)OCO2` (racemic) [Example 50, (1RS,2SR,3RS)-3-(2-Cyanomethoxy-4-methoxyphenyl)-1-(3,4-methylenedioxyphenyl)-5-(prop-1-yloxy)indane-2-carboxylic acid], the figure is 199 to 201 °C.
Consider `CCCOc1cccc2c1[C@@H](c1ccc3c(c1)OCO3)[C@@H](C(=O)O)[C@H]2c1ccc(OC)cc1OCC(=O)O` (racemic) [Example 91, (1RS, 2RS, 3RS)-1-(2-Carboxymethoxy-4-methoxyphenyl]-3-(3,4-methylenedioxyphenyl)-4-(prop-1-yloxy)indane-2-carboxylic acid], for which the melting point was in the range of 201 to 206 °C.
In turn, `O=C(O)C1[C@H](c2ccc3c(c2)OCO3)c2ccccc2[C@H]1c1ccc2c(c1)OCO2` (racemic) [Example 6, (1RS, 3RS)-1,3-Di-(3,4-methylenedioxyphenyl)-indane-2-carboxylic acid] had a melting point of 182 to 185 °C.
As for `CCCOc1ccc2c(c1)[C@H](c1ccccc1O)[C@@H](C(=O)O)[C@@H]2c1ccc2c(c1)OCO2` (racemic) [Example 36, (1RS, 2SR, 3RS)-3-(2-Hydroxyphenyl)-1-(3,4-methylenedioxyphenyl)-5-(prop-1-yloxy)indane-2-carboxylic acid], the figure is 97 to 98 °C.
In turn, `CCCOc1ccc2c(c1)[C@H](c1ccc(OC)cc1OCOC)[C@@H](C(=O)O)[C@@H]2c1ccc2c(c1)OCO2` (racemic) [Example 31, (1RS, 2SR, 3RS)-3-(4-methoxy-2-methoxymethoxyphenyl)1-(3,4-methylenedioxyphenyl)-5-(prop-1-yloxy)indane-2-carboxylic acid] displayed a melting point of 161 to 163 °C.
To `CCCOc1ccc2c(c1)[C@H](c1ccc(OC)cc1OCC(=O)O)[C@@H](CNS(=O)(=O)C(F)(F)F)[C@@H]2c1ccc2c(c1)OCO2` (racemic) [Example 140, (1RS, 2SR, 3RS)-2-Trifluoromethylsulfonamidomethyl-3-(2-carboxymethoxy-4-methoxyphenyl)-1-(3,4-methylenedioxyphenyl)-5-(prop-1-yloxy)indane] belongs 184 to 186 °C; to `O=C(O)[C@H]1[C@H](c2ccc3c(c2)OCO3)c2ccc(OCc3ccccc3)cc2[C@@H]1c1ccc2c(c1)OCO2` (racemic) [Example 116, (1RS, 2SR, 3SR)-5-Benzyloxy-1,3-bis(3,4-methylenedioxyphenyl)indane-2 carboxylic acid], 191 to 193 °C.
To `COc1ccc([C@@H]2c3cc(OC)ccc3[C@H](c3ccc4c(c3OC)OCO4)[C@H]2C(=O)O)cc1` (racemic) [Example 93, (1RS, 2SR, 3RS)-5-Methoxy-1-(2-methoxy-3,4-methylenedioxyphenyl)-3-(4-methoxyphenyl)indane-2-carboxylic acid] belongs 148 to 149 °C.
On to `CCCOc1ccc2c(c1)[C@@H](c1ccc(OC)cc1OCC(=O)O)[C@@H](C(=O)O)[C@H]2c1cc2c(cc1OC)OCO2` (racemic) [Example 30, (1RS, 2SR, 3SR)-3-(2-Carboxymethoxy-4-methoxyphenyl)-1-(2-methoxy-4,5-methylenedioxyphenyl)-5-(prop-1-yloxy)-indane-2-carboxylic acid], for which the melting point lay in the range of 188 to 190 °C.
On to `O=C(O)[C@H]1[C@H](c2ccc3c(c2)OCO3)c2ccccc2[C@@H]1c1ccccc1` (racemic) [Example 8, (1RS, 2RS, 3SR)-1-(3,4-Methylenedioxyphenyl)-3-phenylindane-2-carboxylic acid], for which the melting point lay in the range of 186 to 187 °C.
Turning to `COc1ccc([C@H]2c3ccccc3[C@@H](c3ccc(OC)c(OC)c3)[C@@H]2C(=O)O)cc1` (racemic) [Example 26, (1RS, 2RS, 3SR)-1-(3,4-Dimethoxyphenyl)-3-(4-methoxyphenyl)indane-2-carboxylic acid], the melting point fell in the range of 126 to 128 °C.
In turn, `COc1ccc([C@@H]2c3ccc(O)cc3[C@H](c3ccc4c(c3)OCO4)[C@H]2C(=O)O)cc1` (racemic) [Example 81, (1RS, 2SR, 3SR)-5-Hydroxy-3-(3,4-methylenedioxyphenyl)-1-(4-methoxyphenyl)indane-2-carboxylic acid] yielded a melting point of 124 to 127 °C.
On to `COc1ccc([C@@H]2c3cc(O)ccc3[C@H](c3cc4c(cc3OC)OCO4)[C@H]2C(=O)O)cc1` (racemic) [Example 82, (1RS, 2SR, 3RS)-5-Hydroxy-3-(4-methoxyphenyl)-1-(2-methoxy-4,5-methylenedioxyphenyl)indane-2-carboxylic acid], for which the melting point was in the range of 236 to 239 °C.

(Values after US6448260B2, “Endothelin receptor antagonists” (SmithKline Beecham Corporation, priority 1991, dated 2002).)
